Data: patent publication US7932289B2, “Remedy for diabetes” (Takeda Pharmaceutical Company Limited, priority 2004, dated 2011)

System: type 2 diabetic rats with sulfonylurea secondary failure (N-STZ-1.5 rat)
Conditions: for Increment of plasma insulin level: 0 to 10 minutes after oral glucose loading (1 g/kg); for Increment of plasma insulin level / Increment of plasma glucose level: drug 10 mg/kg orally 30 min before glucose, male N-STZ-1.5 rats made glibenclamide-refractory, mean, n=6; for Increment of plasma glucose level: 0 to 60 minutes after oral glucose loading (1 g/kg); for plasma glucose level lowering effect / plasma insulin level increasing effect: in words, type 2 diabetic rats with sulfonylurea secondary failure, 10 mg/kg orally; for plasma glucose level lowering effect: summary of Table 1; for plasma insulin level increasing effect: summary of Table 2
Method: Streptozocin (STZ) (120 mg/kg body weight) was administered to a 1.5-day-old male WKY rat to prepare a type 2 diabetes model N-STZ-1.5 rat.
Glibenclamide (10 mg/kg body weight/day) was orally administered to the N-STZ-1.5 rats (male, 18 rats) every day for 4 consecutive weeks.
At 30 min after the administration, 1 g/kg body weight of a glucose solution was orally administered to each rat, and blood samples were collected from the rat tail vein before administration of the glucose solution and at 10, 30, 60 and 120 minutes after administration of the glucose solution, and the plasma glucose level and plasma insulin level were measured.
The plasma glucose level was measured using an L type Wako Glu2 (trade name, Wako Pure Chemical Industries, Ltd.) according to an enzyme method, and the plasma insulin level was measured using a SHIONORIA insulin kit (trade name, Shionogi & Co., Ltd.) by a radioimmunoassay.
In the Tables, the values show mean values (n=6).

Structure (SMILES)	Increment of plasma insulin level [μU/ml]	Increment of plasma glucose level [mg/dL]	plasma glucose level lowering effect	plasma insulin level increasing effect
Cc1cccc(C)c1-c1cccc(COc2ccc(CCC(=O)O)cc2)c1 [Compound A, 4-([2′,6′-dimethyl-1,1′-biphenyl]-3-ylmethoxy)benzenepropanoic acid]	42.76	107.12	superior plasma glucose level lowering effect	superior plasma insulin level increasing effect
COc1ccc(Cl)cc1C(=O)NCCc1ccc(S(=O)(=O)NC(=O)NC2CCCCC2)cc1 [glibenclamide]	29.37	178.40	failed to show a plasma glucose level lowering effect	hardly showed a plasma insulin level increasing effect
